Measurements reported in patent publication US6017932A, “Pharmaceutical compositions containing at least one NSAID having increased bioavailability” (priority 1996, dated 2000).
“Also recorded” adds a separate entry of the source. Where two headings read alike, the source gives them in different places.

What was measured:
[1] = tested on: COX-II; conditions: vs COX-I; cited from earlier work
[2] = cited from earlier work; for effect of Piperine on bio-availability (in words): with Piperine; for mean increase in AUC: formulations with Piperine vs without
[3] = Plasma levels of Nimesulide in rats after composition with/without Piperine (Experiment I); type: in vivo, albino rats
Procedure: The rats were housed 5 per cage with food and water provided ad libidum.
On the day of experimentation the rats were randomised into ten batches of 5 rats each. Four groups were formed. Group I consisted of one batch of 5 rats, which was kept as control which received no drug treatment. Group II consisted of four batches of five rats each. […] Rats of batch I from Group II were sacrificed 60 minutes post treatment after Chloroform anaesthesia. Batch 2,3 and 4 were similarly sacrificed at 120 min., 240 min. and 360 min. post treatment respectively. Blood was collected from the rats from the ventricle into heparinised tubes.
Group III consisted of one batch of 5 rats, which received only Piperine at a dose level of 1.0 mg/kg body wt. The animals were sacrificed 160 minutes post treatment after Chloroform anaesthesia. Blood was collected from the rats from the ventricle into heparinised tubes.
Group IV consisted of 4 batches of 5 rats each. […] Rats of batch 1 from Group IV were sacrificed 60 minutes post treatment after Chloroform anaesthesia. Batch 2, 3 and 4 were similarly sacrificed at 120 min., 240 min. and 360 min. post treatment respectively. Blood was collected from the rats from the ventricle into heparinised tubes.
The blood samples were centrifuged at 3700 rpm and the plasma separated. To 1 ml plasma 0.5 ml of HCl was added and then extracted with 2 ml of benzene. Extracted benzene was evaporated in a water bath at 95° C. and reconstituted with 100 μl of mobile phase and 10 μl was injected into the HPLC.
Waters HPLC fitted with C8 μ Bondapack was used along with Waters UV-Vis detector (254 nm). Acetonitrile 50% with 50% Ammonium di-hydrogen Phosphate (0.01M) in double distilled, filtered (0.22 μ) water was used as the mobile phase.
Unpaired student T test was applied on the data. Level of significance was fixed at p<0.05.

[4] = cited from earlier work
[5] = relative to other NSAIDs; cited from earlier work
[6] = tested on: renal prostaglandin synthesis; conditions: rats; cited from earlier work
[7] = cited from earlier work; remark: listed apart in the source
[8] = tested on: histamine release, neutrophil myeloperoxidase pathway, bradykinin activity, phosphodiesterase type IV and others; conditions: in words; cited from earlier work
[9] = in vivo; conditions: rat, plasma, po, 10 mg/kg
Procedure: The single test point pharmacokinetic studies were performed in two groups of rats. […] Rats were sacrificed at 90 minutes. post treatment and blood samples were analysed by HPLC.

[10] = rectal, nimesulide 100 and 200 mg; cited from earlier work
[11] = tested on: plasma proteins; conditions: human; cited from earlier work
[12] = tested on: yeast-induced fever; conditions: rats with yeast-induced fever; cited from earlier work
[13] = tested on: painful inflammatory conditions; conditions: cited from earlier work
[14] = in words; cited from earlier work
[15] = oral, 50 to 200 mg nimesulide, healthy adult volunteers

For `COc1ccc2cc(CCC(C)=O)ccc2c1` [Nabumetone], the “COX-II selectivity (in words)” value [1] is given as “selectively inhibit the detrimental COX-II”.
For `CCCCNC(=O)NS(=O)(=O)c1ccc(C)cc1` [tolbutamide], the “effect of Piperine on bio-availability (in words)” value [2] is listed as “no effect on enhancing the bio-availability”.
In the case of `CS(=O)(=O)Nc1ccc([N+](=O)[O-])cc1Oc1ccccc1` [Nimesulide, N-(4-nitro, 2-phenoxyphenyl) methanesulfonamide], the “Concentration of the drug in plasma” value ([3]; 240 min, Nimesulide alone 1.8 mg/kg) is reported as 4.6 ± 1.4 kg/mL, the concentration at 1 h ([3]; rat, plasma, po, 1.8 mg/kg) is reported as 5800 ± 1700 µg/mL and the concentration at 2 h ([3]; rat, plasma, po, 1.8 mg/kg) is reported as 7900 ± 2300 µg/mL. The concentration at 4 h ([3]; rat, plasma, po, 1.8 mg/kg) was 4600 ± 1400 µg/mL, the concentration at 6 h ([3]; rat, plasma, po, 1.8 mg/kg) was 2200 ± 1100 µg/mL and the “effect of food on absorption” value ([4]; concomitant administration of food) was “may decrease the rate, but not the extent, of absorption”. For the same compound, the “apparent volume of distribution” value ([4]; following oral administration) was 0.19 to 0.35 L/kg, the “dose excreted unchanged in the urine” value ([4]; human, in vivo, po) was 1 to 3% and the biotransformation ([4]; in words) was “almost completely biotransformed into 4-hydroxy-nimesulide”. For the same compound, the oral drug absorption ([4]; in words) was “nearly complete”, the peak serum concentrations [4, 15] was 1.98 to 9.85 mg/L and the “time to peak serum concentration” value [4, 15] was 1.22 to 3.17 h. The elimination half-life ([4]; parent compound) was 1.56 to 4.95 h, the “ulcerogenicity / gastric tolerance” value [5] was “less ulcerogenic than aspirin, indomethacin, naproxen, piroxicam and ibuprofen; also recorded: better gastric tolerance than other commonly used NSAIDs” and the “effect on renal prostaglandin synthesis” value [6] was “little effect on renal prostaglandin synthesis in rats”. For the same compound, the “pharmacokinetic profile in special populations” value ([7]; children, elderly volunteers, moderately impaired renal function (creatinine clearance 1.8 to 4.8 L/h)) was “not significantly altered”, the other effects [8] was “appears to exert its effects on histamine release, the neutrophil myeloperoxidase pathway, bradykinin activity, tumour necrosis factor-a release, cartilage degradation, metalloprotease synthesis, phosphodiesterase type IV inhibition, platelet aggregation and synthesis of platelet activating factor” and the concentration at 1.5 h [9] was 8820 µg/mL. For the same compound, the peak serum concentrations [10] was 2.14 to 2.32 mg/L, the “time to peak serum concentration” value [10] was 3 to 4.58 h and the “bound to plasma proteins” value [11] was 99%. For the same compound, the antipyretic potency [12] was “superior antipyretic potency to indomethacin, ibuprofen, aspirin and paracetamol (acetaminophen)”, the onset of analgesia ([13]; human, in vivo) was “rapid onset of analgesia” and the “efficacy in cancer pain” value ([13]; in words) was “highly efficaceous in cancer pain”. The “clinical efficacy vs placebo” value ([13]; oral mostly 200 mg/day or rectal 400 mg/day) was “more effective than placebo” and the “clinical efficacy vs other NSAIDs” value ([13]; vs piroxicam, ketoprofen, naproxen, etodolac, mefenamic acid, diclofenac and others) was “at least as effective as therapeutic dosages of other NSAIDs”.
For `CS(=O)(=O)Nc1ccc([N+](=O)[O-])cc1Oc1ccc(O)cc1` [4-hydroxy-nimesulide], the accumulation ([7]; patients with moderate renal impairment) is given as “Slight accumulation” and the other effects [8] is given as “appears to contribute to the anti-inflammatory activity”.
For `CO[C@H]1/C=C/O[C@@]2(C)Oc3c(C)c(O)c4c(O)c(c(/C=N/N5CCN(C)CC5)c(O)c4c3C2=O)NC(=O)/C(C)=C\C=C\[C@H](C)[C@H](O)[C@@H](C)[C@@H](O)[C@@H](C)[C@H](OC(C)=O)[C@@H]1C` [Rifampicin], the “mean increase in AUC” value [2] is listed as 37.6%.
For `NC(=O)c1cnccn1` [Pyrazinamide], the “mean increase in AUC” value [2] is listed as 36%.
In the case of `NNC(=O)c1ccncc1` [Isoniazid], the “mean increase in AUC” value [2] is listed as 131%.
For `CC[C@@H](CO)NCCN[C@@H](CC)CO` [Ethambutol], the “effect of Piperine on bio-availability (in words)” value [2] is given as “increase bio-availability”.
For `O=C(/C=C/C=C/c1ccc2c(c1)OCO2)N1CCCCC1` [Piperine, (E, E) 1-[5-(1,3-benzodioxyl-5-yl)-1-oxo-2,4-pentadenyl] piperidine], the “Plasma levels of Nimesulide” value ([3]; 120 min. post treatment, Nimesulide 1.8 mg/kg with or without Piperine 1.0 mg/kg, oral, rats) is listed as “Nil” and the solubility / insolubility [14] is listed as “soluble in benzene, chloroform, ether, ethyl acetate, dichloromethane, alcohol, acetic acid and insoluble in water, pet. ether”.
